Results reported in patent publication US7468366B2, “Cytotoxic agents” (Rutgers, The State University of New Jersey, priority 2001, dated 2008).

Row | melting point | SMILES
1 | 224 °C (dec.) | CCCCn1c(=O)c2cc(OC)c(OC)cc2c2cnc3cc4c(cc3c21)OCO4 [Example 11, 8,9-Dimethoxy-2,3-methylenedioxy-5-(butyl)-5H-dibenzo[c,h]1,6-naphthyridin-6-one]
2 | 299 °C | CCCCn1c(=O)c2cc(OC)c(OC)cc2c2nnc3cc4c(cc3c21)OCO4 [Example 10, 2,3-Dimethoxy-8,9-methylenedioxy-11-(n-butyl)-11H-5,6,11-triazachrysen-12-one]
3 | 239 to 242 °C (dec.) | COc1cc2c(cc1OC)-c1cnc3cc4c(cc3c1OC2)OCO4 [Example 12, 8,9-Dimethoxy-2,3-methylenedioxy-6H-5-oxa-12-aza-chrysene]
